Experimental data taken from the Deep4Chem optical property database.

Assay: solvent given as SMILES

## FC(F)(F)c1ccc(C2=CC3=c4cc(-c5ccc(C(F)(F)F)cc5)c5nc(C(F)(F)C(F)(F)C(F)(F)F)nc6c(-c7ccc(C(F)(F)F)cc7)cc(c4c65)C4=CC(c5ccc(C(F)(F)F)cc5)=C5N=C(C(F)(F)C(F)(F)C(F)(F)F)N=C2C5C43)cc1 (configuration not stated)
In C1CCOC1
  absorption maximum: 489 nm

## CCCCc1cc(-c2cccc(COC)c2)oc1-c1cccc(-c2cc(CCCC)c(-c3cccc(-c4cc(CCCC)c(-c5cccc(-c6oc(-c7cccc(-c8oc(-c9cccc(-c%10oc(-c%11cccc(COC)c%11)cc%10CCCC)c9)cc8CCCC)c7)cc6CCCC)c5)o4)c3)o2)c1
In ClC(Cl)Cl
  absorption maximum: 337 nm

## CCOc1cc(C=C2c3ccccc3-c3ccccc32)c(OCC)cc1C=C1c2ccccc2C=Cc2ccccc21
In C1CCOC1
  absorption maximum: 395 nm

## COc1ccc(/C=C(\C)c2nc3ccccc3o2)cc1
In C1CCCCC1
  absorption maximum: 320 nm
In CO
  absorption maximum: 325 nm

## c1cc2ccc3ccc4cc3c2cc1c1ccc2c(c1)c1cc(ccc1[C@]13OCCO[C@]21OCCO3)c1ccc2c(c1)c1cc4ccc1[C@]13OCCO[C@]21OCCO3
In Cc1ccccc1
  absorption maximum: 353 nm

## C=Cc1ccc(OC)c(OC)c1
In C1CCCCC1
  absorption maximum: 309 nm

## Cc1ccc(-c2cnc3ccc4ccccc4n23)cc1
In ClCCl
  absorption maximum: 324 nm

## CCC1=C(C)C2=Cc3c(I)c(I)c(I)n3[B-](F)(F)[N+]2=C1C
In C1CCCCC1
  absorption maximum: 543.5 nm
In CC(C)=O
  absorption maximum: 528 nm
In CCO
  absorption maximum: 536 nm
In CCOC(C)=O
  absorption maximum: 532 nm
In CO
  absorption maximum: 531.5 nm
In OCC(F)(F)F
  absorption maximum: 523 nm

## O=C(O)c1cc(O)c(O)c(O)c1
In O
  absorption maximum: 258 nm

## COc1ccc2c(c1)SC1=Nc3sc4cc(OC)ccc4[n+]3CN12
In CO
  absorption maximum: 405 nm

## CC1(C)C(/C=C/C2=C(Cl)C(=C/C=C3/N(Cc4ccc(C(=O)O)cc4)c4ccccc4C3(C)C)/CCC2)=[N+](Cc2ccc(C(=O)O)cc2)c2ccccc21
In CO
  absorption maximum: 786 nm

## CN(C)c1ccc(C2=Cc3c4ccccc4c4ccccc4[n+]3[B-](F)(F)O2)cc1
In C1CCOC1
  absorption maximum: 478 nm
In C1COCCO1
  absorption maximum: 477 nm
In CC1CCCCC1
  absorption maximum: 474 nm
In CC#N
  absorption maximum: 476 nm
In CCOC(C)=O
  absorption maximum: 475 nm
In CCOCC
  absorption maximum: 472 nm
In CN(C)C=O
  absorption maximum: 484 nm
In CO
  absorption maximum: 475 nm
In COC(C)=O
  absorption maximum: 477 nm
In ClC(Cl)Cl
  absorption maximum: 483 nm

## CC[N+]1(CC)CN2C(=N1)C(C(=O)O)=Cc1ccccc12
In CN(C)C=O
  absorption maximum: 361 nm
In O
  absorption maximum: 373 nm

## Cc1cc2cc(C)c3c4ccccc4[nH]c3c2o1
In ClCCl
  absorption maximum: 302 nm

## c1ccc2c(-c3nc4sc5ccccc5c4s3)cccc2c1
In CS(C)=O
  absorption maximum: 350 nm

## CCCCCCCCCCCCCCCCCCOC(=O)/C=C/C1=CC2=C(c3c(C)cc(C)cc3C)c3cccn3[B-](F)(F)[N+]2=C1
In ClCCl
  absorption maximum: 538 nm

## CCCCn1c2ccccc2c2ccc3c4cc(-c5ccc(C(F)(F)F)cc5)ccc4n(CCCC)c3c21
In ClC(Cl)Cl
  absorption maximum: 326 nm

## Cc1cnc(NC(=O)C2=C([O-])c3ccccc3S(=O)(=O)N2C)s1
In CC#N
  absorption maximum: 371 nm
In CCCCO
  absorption maximum: 369 nm
In CCCO
  absorption maximum: 368 nm
In CCO
  absorption maximum: 366 nm
In CO
  absorption maximum: 364 nm

## BrC1=CN2C[n+]3cc(Br)c4ccccc4c3N=C2c2ccccc21
In CO
  absorption maximum: 457 nm

## CCOc1ccc2c(-c3nc(-c4ccccc4F)no3)cc(=O)oc2c1
In CCO
  absorption maximum: 345 nm
In ClC(Cl)Cl
  absorption maximum: 393 nm

## O=C(NCc1ccccc1)c1sc(-c2ccc(-c3cc(C4CC4)c(C(=O)NCc4ccccc4)s3)s2)cc1C1CC1
In ClCCl
  absorption maximum: 393 nm

## Fc1c(F)c(-n2c3ccccc3c3ccccc32)c(F)c(F)c1/C=C/c1ccc(C(=C(c2ccccc2)c2ccccc2)c2ccccc2)cc1
In Cc1ccccc1
  absorption maximum: 367 nm

## F[B-]1(F)n2c(cc3ccc4ccccc4c32)C(c2ccc(I)cc2)=C2C=C3CCc4ccccc4C3=[N+]21
In ClC(Cl)Cl
  absorption maximum: 634 nm

## CC(C)(C)C1Nc2c(Br)cc(Br)cc2C(=O)N1Cc1ccccc1 (configuration not stated)
In CC#N
  absorption maximum: 360 nm
In CCCCCCCCCCCCCCCC
  absorption maximum: 351 nm
In CO
  absorption maximum: 368 nm
In ClC(Cl)Cl
  absorption maximum: 359 nm
In c1ccccc1
  absorption maximum: 356 nm

## COc1ccc2c(c1)O[B-]13Oc4cc(OC)ccc4-c4cc(-c5ccccc5)c(n41)N=C1C(c4ccccc4)=CC2=[N+]13 (configuration not stated)
In ClC(Cl)Cl
  absorption maximum: 765 nm

## O=[N+]([O-])c1ccc([N+]2=Cc3ccc4c5c(ccc4c3O[B-]2(c2c(F)c(F)c(F)c(F)c2F)c2c(F)c(F)c(F)c(F)c2F)C=[N+](c2ccc([N+](=O)[O-])cc2)[B-](c2c(F)c(F)c(F)c(F)c2F)(c2c(F)c(F)c(F)c(F)c2F)O5)cc1
In C1CCOC1
  absorption maximum: 525 nm
In CC#N
  absorption maximum: 513 nm
In CC(C)=O
  absorption maximum: 515 nm
In Cc1ccccc1
  absorption maximum: 549 nm
In ClCCl
  absorption maximum: 553 nm

## CN(C)c1ccc(C2=C(c3ccccc3)c3sc4ccccc4[n+]3[B-](F)(F)O2)cc1
In C1CCOC1
  absorption maximum: 446 nm

## O=C1NC(=O)c2ccc3c4ccc5c6c(ccc(c7ccc1c2c73)c64)C(=O)N(c1ccc(Cl)cc1)C5=O
In CN(C)C=O
  absorption maximum: 526 nm

## CCCCCCCCn1c(=O)c2cc3cc4cc5c(=O)n(CCCCCCCC)c(=O)c5cc4cc3cc2c1=O
In ClC(Cl)Cl
  absorption maximum: 421 nm

## F[Si](c1ccccc1)(c1ccccc1)c1cccc2ccccc12
In C1CCOC1
  absorption maximum: 286 nm

## CC[N+]1(CC)CN2C(C)=CC(C)=C(C(=O)[O-])C2=N1
In CN(C)C=O
  absorption maximum: 361 nm
In O
  absorption maximum: 338 nm

## COc1ccc2c(c1)CCc1c(-c3ccccc3)c3n(c1-2)[B-](F)(F)[N+]1=C2C(=C(c4ccccc4)C1=N3)CCc1ccccc12
In ClC(Cl)Cl
  absorption maximum: 723 nm
